Paper PMC6099493, “Discovery of Matrinic Thiadiazole Derivatives as a Novel Family of Anti-Liver Fibrosis Agents via Repression of the TGFβ/Smad Pathway” (Molecules : A Journal of Synthetic Chemistry and Natural …, 2018)
Structures can show the parent of a compound that is named as a salt.

What was measured:
COL1A1 promotor = COL1A1 promotor single luciferase reporter gene model in LX-2 (LX2-COL) cells; format: cell-based, human; settings: Homo sapiens, LX-2 cells treated simultaneously with TGFβ1 and compound, read-out: Inhibition Percentage (inhibition rate of COL1A1 promotor's activity in LX2 cells)
[1] = MTT cytotoxicity / cell survival assay; format: cell-based; settings: human, HepG2 cells, read-out: CC50 (cytotoxic concentration required to inhibit HepG2 cell growth by 50%)
Experimental: (§1) A single luciferase reporter gene detection model was applied to screen the inhibitory effects towards COL1A1 promotor of all target compounds in human hepatic stellate LX-2 cells at the concentration of 40 μM, taking EGCG and compound 1 as the positive controls. The LX2-COL monoclone cell line was treated simultaneously with TGFβ1 and a target compound [13]. The cytotoxicity was determined using MTT assay in HepG2 cells.
(§2) The cell survival was evaluated by MTT assay. HepG2 cells were seeded at density of 6 × 10^3 cells/well in 96-well plate. Cells were treated with various concentrations of matrinic derivate until the cells at 50% confluence. After 24 h of incubation, 20 µL of the MTT (5 mg/mL) solution was added into each plate and incubated for 4 h at 37 °C, 5% CO2. Subsequently, the culture supernatant was replaced with 150 µL DMSO to dissolve the formazan crystal. The absorbance at 570 nm was measured using a microplate reader (ELx800, BioTek Instruments, Winooski, VT, USA).

HepG2 cells = experiment: MTT cytotoxicity / cell survival assay; format: cell-based; settings: read-out: CC50 (cytotoxic concentration required to inhibit HepG2 cell growth by 50%)
Experimental: as §1, §2

α-SMA mRNA = α-SMA mRNA level by real-time PCR in TGFβ1-stimulated LX-2 cells; format: cell-based, human; settings: 80 μM, TGFβ1 2 ng/mL
Experimental: (§3) α-SMA is a more commonly recognized indicator for liver fibrosis, and it could be induced by a stimulation of TGFβ1 [22], therefore, the amounts of α-SMA were also evaluated.
(§4) LX-2 cells were seeded in 6-well plate, cultured in DMEM, containing 10% fetal bovine serum (FBS) in a 5% CO2 atmosphere at 37 °C. And serum-free culture was required until the cells at 90–95% confluence. After 24 h, cells were treated with TGFβ1 (2 ng/mL) and matrinic derivatives (80 μM) for 24 h. Total RNA from the LX-2 cells was extracted using Trizol reagent, purified by NucleoSpin RNA Clean-up. Reverse transcription was performed with a Transcriptor first strand cDNA synthesis kit. The cDNA was then analysis by ABI 7500 Fast Real-Time PCR System (ThermoFisher Scientific, Singapore) using TaqMan probes of TGFβ1, COL1A1, α-SMA, and GAPDH (sequence reserved by ABI, Foster City, CA ,USA) and FastStart Universal Probe master mix (Roche, Indianapolis, IN, USA).

COL1A1 mRNA = COL1A1 mRNA level by real-time PCR in TGFβ1-stimulated LX-2 cells; format: cell-based, human; settings: 80 μM, TGFβ1 2 ng/mL
Experimental: (§5) Next, compounds 6i, 6l and 6n were chosen as the key compounds to verify their inhibitory effects against COL1A1. LX-2 cells were stimulated with TGFβ1 (2 ng/mL), and then treated with compounds 6i, 6l and 6n (80 μM) respectively, taking 1 as the control. Their anti-COL1A1 effects were evaluated on RNA level by real-time PCR amplification. […] Then their anti-COL1A1 effects were investigated on the protein level by western blot assays.
as §4

[2] = system: Smad2 / phosphorylated Smad2 (TGFβ/Smad pathway); experiment: Smad2 and p-Smad2 levels by western blot in LX-2 cells; format: cell-based, human
Experimental: Considering the key role of TGFβ/Smad pathway in activating COL1A1, the effects of the three compounds on Smad and phosphorylated Smad were then evaluated.
(§6) LX-2 cells were cultured as described above. Briefly, cells were washed with phosphate-buffered saline (PBS) and were lysed in radioimmunoprecipitation assay (RIPA) lysis for 30 min in 4 °C; the supernatant was collected after centrifugation at 12,000× g, 4 °C for 15 min. Equal amounts of protein were quantified with Bradford assay, separated by SDS-PAGE and transferred to polyvinylidene difluoride membrane. The membranes were blocked for one hour at room temperature in PBST containing 5% milk and probed with specific first antibodies overnight at room temperature. Membrane was washed 3 times by PBST, followed by horseradish peroxidase-conjugated secondary antibodies and GAPDH. The proteins were visualized using chemiluminescence reagents.

α-SMA protein = α-SMA protein level by western blot in LX-2 cells; format: cell-based; settings: Homo sapiens, TGFβ1 2 ng/mL, read-out: α-SMA protein level inhibition rate
Experimental: as §3, §6

COL1A1 protein = COL1A1 protein level by western blot in LX-2 cells; format: cell-based; settings: Homo sapiens, TGFβ1 2 ng/mL, read-out: COL1A1 protein level inhibition rate
Experimental: as §5, §6

Kunming mice = settings: female, mouse, in vivo, po, 7 days
Experimental: To evaluate the safety profile of 6n, an acute toxicity test was performed in Kunming mice. Compound 6n was given orally in a single-dosing experiment at 125, 250 or 500 mg·kg^−1, respectively. The mice were closely monitored for 7 days. To our delight, it gave the median lethal dose (LD50) value over 500 mg·kg^−1, indicating a good safety profile in vivo.
Female Kunming mice with weight of 20.0 (±1.0 g) were obtained from the Institute of Laboratory Animal Science (Beijing, China). Animals were cared according to the institutional guidelines of the Institute of Materia Medica, CAMS&PUMC (00000364). The mice were fed with regular rodent chow and housed in an air conditioned room. The mice were randomly divided into different groups with 6 mice each. Each compound was given orally in a single-dosing experiment at 0, 250, 500, 750 or 1000 mg·kg^−1 (ddH2O as control), respectively. The mice were closely monitored for 7 days. Body weight as well as survival was monitored.

In the case of `Cc1ccc(S(=O)(=O)N2CC3CCCN4CCCC(C34)C2CCCc2nnc(Nc3ccccc3)s2)cc1` (stereo not shown) [Compound 6e, 12-N-p-Methylbenzenesulfonyl-3′-(N-phenyl-5-amino-1,3,4-thiadiazol-2-yl)-matrinic propane], the inhibition at 40 µM (COL1A1 promotor) is reported as 69%, the CC50 at 24 h [1] is reported as > 82.6 µM and the CC50 (HepG2 cells) is reported as 82.5 µM.
In the case of `Nc1nnc(CCCC2C3CCCN4CCCC(CN2Cc2ccccc2)C34)s1` (stereo not shown) [Compound 6i, 12-N-Benzyl-3′-(5-amino-1,3,4-thiadiazol-2-yl)-matrinic propane], the “α-SMA mRNA level inhibitory rate” value (α-SMA mRNA) is reported as 75.1%, the “COL1A1 mRNA level inhibitory rate” value (COL1A1 mRNA) is reported as 46.1% and the “Effect on Smad level” value [2] is reported as “did not affect the Smad level”. The “Effect on phosphorylation level of Smad2 (in words)” value [2] was “repressed the phosphorylation level of Smad2 significantly”, the inhibition at 80 µM (α-SMA protein) was 64.9% and the melting point was 170 to 171 °C. For the same compound, the inhibition at 80 µM (COL1A1 protein) was 65%, the inhibition at 40 µM (COL1A1 promotor) was 47.8% and the CC50 at 24 h [1] was > 320 µM.
In the case of `Cc1ccc(CN2CC3CCCN4CCCC(C2CCCc2nnc(N(C)C)s2)C34)cc1` (stereo not shown) [Compound 6n, 12-N-p-Methylbenzyl-3′-(N,N-dimethyl-5-amino-1,3,4-thiadiazol-2-yl)-matrinic propane hydrochloride], the “α-SMA mRNA level inhibitory rate” value (α-SMA mRNA) is reported as 87.6%, the “COL1A1 mRNA level inhibitory rate” value (COL1A1 mRNA) is reported as 78.4% and the “median lethal dose (LD50)” value (Kunming mice) is reported as “over 500 mg·kg^−1”. The “Effect on Smad level” value [2] was “did not affect the Smad level”, the “Effect on phosphorylation level of Smad2 (in words)” value [2] was “repressed the phosphorylation level of Smad2 significantly” and the “Inhibition rate of Smad2 phosphorylation level” value [2] was 49.8%. It also gave an inhibition at 80 µM (α-SMA protein) of 104%, an inhibition at 80 µM (COL1A1 protein) of 47.6% and an inhibition at 40 µM (COL1A1 promotor) of 39.7%. The CC50 at 24 h [1] was > 320 µM.
